For assay [1], the target named is Neuronal acetylcholine receptor subunit alpha-7 (Rattus norvegicus) (UniProt Q05941). The experiment in a line: Agonistic activity against rat nicotinic acetylcholine receptor alpha-7 expressed in Xenopus oocytes. Conditions: Oocyte. Format: functional, cell-based.
The species entered for a further assay is Rattus norvegicus. The experiment in a line: Agonistic activity against Rat muscle Nicotinic Receptor. Format: functional.
For assay [2], the target named is Neuronal acetylcholine receptor subunit alpha-7 (Rattus norvegicus) (UniProt Q05941). The experiment in a line: Agonistic activity against rat nicotinic acetylcholine receptor alpha-7 expressed in Xenopus oocytes; NA=inactive. Format: functional, cell-based. Conditions: Oocyte.
Assay [3] addresses T1, Neuronal acetylcholine receptor; alpha3/beta4 (Homo sapiens) (UniProt P30926+P32297). Nature of the assay: Agonistic activity against rat Alpha3 beta-4 Nicotinic Receptor expressed in Xenopus oocytes; NA=inactive. As to conditions: Oocyte. Format: functional, cell-based.
The target in assay [4] is Neuronal acetylcholine receptor; alpha4/beta2 (Homo sapiens) (UniProt P17787+P43681). Nature of the assay: Agonistic activity against rat Nicotinic acetylcholine receptor alpha4-beta2 expressed in Xenopus oocytes; NA=inactive. Conditions: Oocyte. Format: functional, cell-based.
In assay [5] the target is T1, Neuronal acetylcholine receptor; alpha3/beta4 (Homo sapiens). Nature of the assay: Agonistic activity against rat Alpha3 beta-4 Nicotinic Receptor expressed in Xenopus oocytes. As to conditions: Oocyte. Format: functional, cell-based.
Assay [6] has the same target. The experiment in a line: Agonistic activity against Alpha3 beta4 Nicotinic receptor from Xenopus oocytes expressing recombinant nAChR from rat; NA=inactive. The format is functional, cell-based. As to conditions: Oocyte.
The subject of assay [7] is Neuronal acetylcholine receptor alpha4/beta2 (Rattus norvegicus). The experiment in a line: Agonistic activity against rat Nicotinic acetylcholine receptor alpha4-beta2 expressed in Xenopus oocytes. Conditions: Oocyte.
Assay [8] has as its system Neuronal acetylcholine receptor alpha3/beta4 (Rattus norvegicus). The experiment in a line: Agonistic activity against Alpha3 beta-4 Nicotinic receptor from Xenopus oocytes expressing recombinant nAChR from rat. As to conditions: Oocyte.

Data on 8 compounds can be found in ChEMBL document CHEMBL1134463 (2001).

Calls of active or inactive are those of the source. The calls are words filed in the database; no cut-off is given here.

Chain of Neuronal acetylcholine receptor subunit alpha-7 (Rattus norvegicus) (Q05941 whole entry): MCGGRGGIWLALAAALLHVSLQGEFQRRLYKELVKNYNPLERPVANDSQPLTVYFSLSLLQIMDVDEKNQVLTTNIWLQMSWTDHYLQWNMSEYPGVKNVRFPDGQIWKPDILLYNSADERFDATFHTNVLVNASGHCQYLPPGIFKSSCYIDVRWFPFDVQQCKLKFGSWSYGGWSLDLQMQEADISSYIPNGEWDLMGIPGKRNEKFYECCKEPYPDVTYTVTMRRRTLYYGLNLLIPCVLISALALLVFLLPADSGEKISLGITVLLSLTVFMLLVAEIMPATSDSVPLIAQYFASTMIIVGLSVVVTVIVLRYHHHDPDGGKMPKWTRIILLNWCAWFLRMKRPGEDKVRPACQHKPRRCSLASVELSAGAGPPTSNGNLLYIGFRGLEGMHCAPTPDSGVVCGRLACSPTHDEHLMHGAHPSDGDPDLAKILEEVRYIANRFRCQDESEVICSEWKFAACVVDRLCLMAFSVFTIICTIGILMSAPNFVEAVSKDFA

With `CN1CCC[C@H]1c1cccnc1.O=C(O)C(O)C(O)C(=O)O.O=C(O)C(O)C(O)C(=O)O`, the Activity in [1] is 12.6 µM; in the assay listed under Rattus norvegicus, 6.3 µM.

`CCOC(=O)N1C2CC[C@@H]1CC2c1cc(Cl)nnc1Cl` (stereo not given in full): the outcome in [2], in assay [3] and in [4] was inactive.

Consider `Clc1ccc(C2CC3CCC2N3)cn1` (racemic) [EPIBATIDINE], for which the Activity in [1] amounted to 0.5 µM; in [5], 0.005 µM; in the assay filed under Rattus norvegicus, 0.03 µM.

As to `FC(F)(F)c1cc(C2CC3CCC2N3)c(C(F)(F)F)nn1` (stereo not given), the outcome in [2], in [6] and in [4] was inactive.

Turning to `CCOC(=O)N1C2CC[C@@H]1CC2c1ccnnc1` (stereo not given in full), the result in assay [2] and in assay [6] was inactive. Also, the Activity (in the assay listed under Rattus norvegicus; in [7]) was above 100 µM in each case.

Regarding `CC(=O)OCC[N+](C)(C)C` [ACETYLCHOLINE], the values for the Activity (in [1]; in the assay listed under Rattus norvegicus) were 50 µM and 0.1 µM, respectively.

Turning to `c1cc(C2CC3CCC2N3)cnn1` (stereo not given), the Activity was 40 µM in assay [1], 0.16 µM in the assay filed under Rattus norvegicus, 0.02 µM in assay [7] and 0.16 µM in assay [8].

Take `CN1C2CC[C@@H]1CC2c1ccnnc1` (stereo not given in full): the Activity in assay [1] came out at 25 µM; in the assay listed under Rattus norvegicus it was 0.2 µM; in assay [7], 0.013 µM; in assay [8], 0.32 µM.
